US8629110B2, “Kv1.3 channel blocking substances for the treatment of diseases associated with intimal hyperplasia” (priority 2008, dated 2014)

Tests used:
[1] = tested on: Swine animal model of restenosis (coronary artery intima); assay: Swine animal model for the treatment of restenosis: morphometric analysis of stented coronary arteries; format: in vivo, pigs
Method: (§1) The total weight of the polymer with the drug is about 500 μg and the drug:polymer ratio is 30%. The stents are packed individually, coded with a bar code (to do a double blind experiment) and sterilized with ethylene oxide.
(§2) 36 stents (12 with the polymer alone, 12 with PAP and 12 with ShK) are implanted in 12 young pigs (25-35 kg) in the anterior descending or circumflex branches of the left coronary artery or in the right coronary artery (at a proportion of 3 stents per animal). The animals recover from the operation and are sent back to the animal house where they receive a normal diet supplemented with aspirin (325 mg/d). Blood samples of the animals are obtained at 6, 12, 24, 48 and 96 hours to determine the plasma levels of PAP and ShK. At 7 (n=4) or 28 days (n=8) the animals are euthanized after performing a coronary arteriography for the quantitative analysis. In one animal of each group (7 and 28 days), after euthanasia the coronary arteries are dissected, the stent is removed and the samples are frozen in liquid nitrogen in order to determine different markers by means of Western blot of the tissues and to determine the levels of PAP and ShK in the arterial wall. In the rest of the animals, immediately after euthanasia the hearts are collected and the coronary arteries are fixed by perfusion of formalin at 10% for 30 minutes.
A morphometric analysis is performed measuring the degree of endothelialization of the stent area, the content of VSMCs in the intima and its thickness in relation to the thickness of the vessel and the lumen area (see FIG. 9).

Kv1.3 channel = Kv1.3 channel (Homo sapiens, UniProt P22001); assay: Whole-cell patch-clamp in HEK cell transfected with the Kv1.3 channel; format: cell-based; settings: 10 nM; potentials from +10 up to +80 mV; HEK cell transfected with Kv1.3
Sequence of Kv1.3 channel (P22001 whole entry): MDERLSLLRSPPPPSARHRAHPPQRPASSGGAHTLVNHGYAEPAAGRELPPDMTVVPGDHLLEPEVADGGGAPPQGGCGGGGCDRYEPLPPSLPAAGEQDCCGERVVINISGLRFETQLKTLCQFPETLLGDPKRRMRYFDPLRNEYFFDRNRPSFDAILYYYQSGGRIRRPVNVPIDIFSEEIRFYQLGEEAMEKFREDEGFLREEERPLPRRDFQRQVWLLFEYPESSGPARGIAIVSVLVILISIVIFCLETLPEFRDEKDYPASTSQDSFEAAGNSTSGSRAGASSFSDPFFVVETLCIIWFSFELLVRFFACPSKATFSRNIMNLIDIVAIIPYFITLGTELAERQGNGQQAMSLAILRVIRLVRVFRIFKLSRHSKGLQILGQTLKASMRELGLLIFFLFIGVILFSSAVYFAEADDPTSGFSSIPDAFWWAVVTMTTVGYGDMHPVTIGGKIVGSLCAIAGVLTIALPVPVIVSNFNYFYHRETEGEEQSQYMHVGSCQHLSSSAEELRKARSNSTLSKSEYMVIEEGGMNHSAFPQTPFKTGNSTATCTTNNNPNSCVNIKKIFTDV
Description: FIG. 3. Example of the assay for determining if a substance is a Kv1.3 channel blocker. […] The amplitude of the maximum current evoked by each voltage pulse is depicted in panel B depending on the value of the membrane potential, with which the current (I) voltage (V) curve is constructed for the three situations.
To evaluate if a substance is capable of dose-dependently reducing the flow of current through Kv1.3 (i.e., if it is a Kv1.3 blocker). The currents through the Kv1.3 channels expressed in the heterologous system were studied by means of the patch-clamp technique in the whole-cell configuration. The currents were recorded at room temperature (21-25° C.). The cells, placed in a recording chamber located in an inverted microscope, were perfused with a physiological saline solution (in mM: 141 NaCl, 4.7 KCl, 1.2 MgCl2, 1.8 CaCl2, 10 glucose and 10 HEPES (pH 7.4 with NaOH). The recording pipettes were made from borosilicate glass (2.0 mm OD, WPI) with a pipette puller (Narishige PP-83) so that they have resistances between 2 and 5 MΩ upon filling them with an internal solution containing (in mM) 125 KCl, 4 MgCl2, 10 HEPES, 10 EGTA, 5 MgATP; (pH 7.2 with KOH). The whole-cell currents were recorded with an Axopatch 200 amplifier or the like, filtering at 2 kHz and sampling at 10 kHz. […]

[2] = tested on: VSMCs of the human uterine artery; assay: Proliferation of VSMCs in culture (BrdU incorporation); format: cell-based; settings: 10 nM; 24 hours; medium with 5% serum
Method: FIG. 8. Effect of the Kv1.3 channel blockers on the proliferation of the VSMCs of the human uterine artery. […] Again, these experiments were conducted in cells in control medium and cells in which the margatoxin or PAP was added to the medium.
For the proliferation studies, the fraction of cells incorporating 5-bromo-2′-deoxyuridine (BrdU) was determined. BrdU is a thymidine analog which can be incorporated in its place for the synthesis phase of the cell cycle. The cells incorporating BrdU can be detected by means of observation under a fluorescence microscope upon using a monoclonal antibody against this molecule and a secondary antibody conjugated with a fluorochrome. The assay was performed with a commercial kit (5-Bromo-2′-deoxy-uridine labeling and Detection Kit I; Roche Applied Science, Germany). The human uterine artery smooth muscle cells were grown for 48 hours in glass coverslips 12 mm in diameter in DMEM medium supplemented with serum and antibiotics as has been previously described, until reaching a confluence close to 50%. […] To quantify the results, the number of cells positive for BrdU with respect to the total number of cells in the field (which is determined by labeling the nuclei with the DAPI fluorescent dye) is counted in 10-20 fields in each experiment.

[3] = Swine stent model: pharmacokinetics (blood and arterial tissue levels); format: in vivo, pigs
Method: as §1, §2

## O=c1ccc2c(OCCCCOc3ccccc3)c3ccoc3cc2o1 [PAP-1]
[1]; drug-coated stent versus control stent
  number of VSMCs in the intima: significantly decreased
[1]; drug-coated stent, 5.07 mm^2 in control
  intimal area: 2.23 mm^2
[1]; drug-coated stent, 45% in control
  degree of stenosis: 27%
Kv1.3 channel
  reduction of the current: 80-85%
[2]
  fraction of cells labeled with BrdU (proliferation): a lower number of labeled nuclei is observed
[3]; 6 hours after implanting the stent, stent with 200 μg drug
  blood levels, maximal: about 3 ng/ml
[3]; at 7 days
  content in the arterial tissue: 97 ng/artery
[3]; at 28 days
  content in the arterial tissue: 30 ng/artery
